Several values for one entry are separate records, joined by “and”; a condition that tells them apart may be missing. Equal entries are not always repeated. Toxic doses and inconclusive results are not listed.

This assay relates to P388 leukemia ip, CD2F1 mice, survival T/C. Description: NCI In Vivo Anticancer Drug Screen. Data for tumor model P388 Leukemia (intraperitoneal) in CD2F1 (CDF1) mice. To be noted: endpoint: median survival time, higher = longer survival. The gist of the method: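 Mice carrying the transplanted tumor received test compound or vehicle. Survival was recorded in each group, and the value is the treated-group measurement divided by that of the vehicle-treated control group.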

Where [1] appears, read: dose: 60.0 mg/kg/injection, schedule: Q01DX005 (ip), vehicle: saline with Tween-80.
[2] abbreviates: dose: 120.0 mg/kg/injection, schedule: Q01DX005 (ip), vehicle: saline with Tween-80.
Where [3] appears, read: dose: 240.0 mg/kg/injection, schedule: Q01DX005 (ip), vehicle: saline with Tween-80.
Setting [4] is: dose: 50.0 mg/kg/injection, schedule: Q01DX009 (ip), vehicle: Klucel (hydroxypropylcellulose) (HPC).
[5] abbreviates: dose: 100.0 mg/kg/injection, schedule: Q01DX009 (ip), vehicle: Klucel (hydroxypropylcellulose) (HPC).
The mark [6] stands for this setting: dose: 50.0 mg/kg/injection, schedule: Q01DX009 (ip), vehicle: saline.
The mark [7] stands for this setting: dose: 100.0 mg/kg/injection, schedule: Q01DX009 (ip), vehicle: saline.
[8] abbreviates: dose: 50.0 mg/kg/injection, schedule: Q01DX005 (ip), vehicle: saline with Tween-80.
Where [9] appears, read: dose: 100.0 mg/kg/injection, schedule: Q01DX005 (ip), vehicle: saline with Tween-80.
[10] abbreviates: dose: 200.0 mg/kg/injection, schedule: Q01DX005 (ip), vehicle: saline with Tween-80.
Where [11] appears, read: dose: 60.0 mg/kg/injection, schedule: Q01DX005 (ip), vehicle: saline.
Setting [12] is: dose: 120.0 mg/kg/injection, schedule: Q01DX005 (ip), vehicle: saline.
The mark [13] stands for this setting: dose: 240.0 mg/kg/injection, schedule: Q01DX005 (ip), vehicle: saline.
The mark [14] stands for this setting: dose: 50.0 mg/kg/injection, schedule: Q01DX005 (ip), vehicle: Klucel (hydroxypropylcellulose) (HPC).
Where [15] appears, read: dose: 100.0 mg/kg/injection, schedule: Q01DX005 (ip), vehicle: Klucel (hydroxypropylcellulose) (HPC).
[16] abbreviates: dose: 200.0 mg/kg/injection, schedule: Q01DX005 (ip), vehicle: Klucel (hydroxypropylcellulose) (HPC).

In the case of `O=c1oc2ccc(Br)cc2cc1-n1nnc2ccccc21`, the T/C reads like this: (dose: 15.0 mg/kg/injection, schedule: Q01DX005 (ip), vehicle: saline with Tween-80) 88 % of control; (dose: 30.0 mg/kg/injection, schedule: Q01DX005 (ip), vehicle: saline with Tween-80) 93 % of control; under setting [1], 88 % of control and 90 % of control; under setting [2], 86 % of control and 97 % of control; under setting [3], 97 % of control.

As for `C=C(C)c1nc(NCC)nc(NCC)n1`, the T/C is 94 % of control (dose: 100.0 mg/kg/injection, schedule: Q01DX001 (ip), vehicle: Klucel (hydroxypropylcellulose) (HPC)); 90 % of control (dose: 200.0 mg/kg/injection, schedule: Q01DX001 (ip), vehicle: Klucel (hydroxypropylcellulose) (HPC)); 92 % of control (dose: 400.0 mg/kg/injection, schedule: Q01DX001 (ip), vehicle: Klucel (hydroxypropylcellulose) (HPC)).

For `OC1COCC1O` (stereo not drawn), the T/C is 100 % of control (dose: 25.0 mg/kg/injection, schedule: Q01DX009 (ip), vehicle: Klucel (hydroxypropylcellulose) (HPC)); 102 % of control under setting [4]; 100 % of control under setting [5].

In the case of `O=c1oc(-c2ccccc2)cc(N(c2ccccc2)c2ccccc2)c1Cl`, the T/C is 93 % of control (dose: 50.0 mg/kg/injection, schedule: Q01DX009 (ip), vehicle: saline with Tween-80); 93 % of control (dose: 100.0 mg/kg/injection, schedule: Q01DX009 (ip), vehicle: saline with Tween-80); 95 % of control (dose: 200.0 mg/kg/injection, schedule: Q01DX009 (ip), vehicle: saline with Tween-80).

Regarding `N#CC1CCCC[N-]1.[NH-]CC[N-]CC[NH-].[Pt+4]` (stereo not drawn), the T/C (dose: 6.25 mg/kg/injection, schedule: Q01DX009 (ip), vehicle: saline) was 93 % of control; the T/C (dose: 12.5 mg/kg/injection, schedule: Q01DX009 (ip), vehicle: saline) was 97 % of control; the T/C (dose: 25.0 mg/kg/injection, schedule: Q01DX009 (ip), vehicle: saline) is 100 % of control; the T/C under setting [6] was 97 % of control; the T/C under setting [7] is 89 % of control.

As for `O=C(O)c1ccc(N/N=C/C(F)(F)F)cc1`, the T/C runs as follows: (dose: 60.0 mg/kg/injection, schedule: Q01DX005 (ip), vehicle: saline + Tween-80 + alcohol) 96 % of control; (dose: 120.0 mg/kg/injection, schedule: Q01DX005 (ip), vehicle: saline + Tween-80 + alcohol) 94 % of control; (dose: 240.0 mg/kg/injection, schedule: Q01DX005 (ip), vehicle: saline + Tween-80 + alcohol) 102 % of control.

For the compound `Cc1ccc2nc(NC(=S)NCCCCNC(=S)Nc3ccc4cc(C)ccc4n3)ccc2c1`, the T/C reads like this: under setting [4], 98 % of control; under setting [5], 94 % of control; (dose: 200.0 mg/kg/injection, schedule: Q01DX009 (ip), vehicle: Klucel (hydroxypropylcellulose) (HPC)) 89 % of control.

Take `CSc1nc(NC2OCC(OC(C)=O)C(OC(C)=O)C2OC(C)=O)c(N=C(C)C(C)=O)c(=O)n1C` (stereo not drawn): the T/C runs as follows: under setting [1], 100 % of control; under setting [2], 87 % of control.

Consider `O=C1CC(=O)C(C(=O)c2ccccc2)N1` (stereo not drawn), for which the T/C under setting [8] is 96 % of control, the T/C under setting [9] is 97 % of control and the T/C under setting [10] was 94 % of control.

Regarding `CCCOc1ccc2c(NCCCCCCCCNc3c4ccccc4nc4cc(OCCC)ccc34)c3ccccc3nc2c1`, the T/C runs as follows: (dose: 0.63 mg/kg/injection, schedule: Q01DX009 (ip), vehicle: other) 109 % of control; (dose: 1.25 mg/kg/injection, schedule: Q01DX009 (ip), vehicle: lactic acid) 162 % of control; (dose: 7.5 mg/kg/injection, schedule: Q01DX009 (ip), vehicle: other) 90 % of control.

In the case of `N#CCNC=O`, the T/C reads like this: under setting [11], 98 % of control; under setting [12], 103 % of control; under setting [13], 100 % of control.

Consider `CCO/C=C1/N=C(COc2ccc(Cl)cc2C)OC1=O`, for which the T/C runs as follows: under setting [1], 101 % of control; under setting [2], 108 % of control; under setting [3], 95 % of control.

Consider `O=c1oc2c(Cl)cc(Cl)cc2cc1-c1nc2ccccc2[nH]1`, for which the T/C by setting is: (dose: 25.0 mg/kg/injection, schedule: Q01DX005 (ip), vehicle: Klucel (hydroxypropylcellulose) (HPC)) 92 % of control; under setting [14], 92 % of control; under setting [15], 92 % of control; under setting [16], 92 % of control.

Turning to `O=[N+]([O-])c1ccc(OP(=O)(Oc2ccc([N+](=O)[O-])cc2)N(CCCl)CCCl)cc1`, the T/C (dose: 18.8 mg/kg/injection, schedule: Q01DX001 (ip), vehicle: other) was 108 % of control; the T/C (dose: 37.5 mg/kg/injection, schedule: Q01DX001 (ip), vehicle: other) is 112 % of control; the T/C (dose: 75.0 mg/kg/injection, schedule: Q01DX001 (ip), vehicle: other) is 113 % of control; the T/C (dose: 150.0 mg/kg/injection, schedule: Q01DX001 (ip), vehicle: other) is 115 % of control; the T/C (dose: 300.0 mg/kg/injection, schedule: Q01DX001 (ip), vehicle: other) is 99 % of control.

On to `CN1C(C)(C)CC(O)CC1(C)C`, for which the T/C under setting [11] was 102 % of control and the T/C under setting [12] was 102 % of control.

`CCOC(/C=C/c1ccccc1)OCC`: the T/C reads like this: (dose: 100.0 mg/kg/injection, schedule: Q04DX003 (ip), vehicle: saline) 104 % of control; (dose: 200.0 mg/kg/injection, schedule: Q04DX003 (ip), vehicle: saline) 104 % of control.

For `BrCC1CN=C(c2ccccc2)O1` (stereo not drawn), the T/C runs as follows: under setting [11], 104 % of control; under setting [12], 101 % of control; under setting [13], 101 % of control.

For `O=C1c2ccccc2C(=O)c2c(NCCN3CCNCC3)ccc(NCCN3CCNCC3)c21`, the T/C by setting is: (dose: 4.0 mg/kg/injection, schedule: Q01DX009 (ip), vehicle: acid diluted with saline) 103 % of control; (dose: 8.0 mg/kg/injection, schedule: Q01DX009 (ip), vehicle: acid diluted with saline) 109 % of control; (dose: 12.5 mg/kg/injection, schedule: Q01DX009 (ip), vehicle: water) 107 % of control; (dose: 16.0 mg/kg/injection, schedule: Q01DX009 (ip), vehicle: acid diluted with saline) 120 % of control; (dose: 50.0 mg/kg/injection, schedule: Q01DX009 (ip), vehicle: water) 123 % of control.

With `CC(=O)c1cnn(C(N)=O)c1C`, the T/C reads like this: (dose: 15.0 mg/kg/injection, schedule: Q01DX005 (ip), vehicle: Klucel (hydroxypropylcellulose) (HPC)) 95 % of control and 96 % of control; (dose: 30.0 mg/kg/injection, schedule: Q01DX005 (ip), vehicle: Klucel (hydroxypropylcellulose) (HPC)) 100 % of control and 102 % of control; (dose: 60.0 mg/kg/injection, schedule: Q01DX005 (ip), vehicle: Klucel (hydroxypropylcellulose) (HPC)) 101 % of control and 97 % of control; (dose: 120.0 mg/kg/injection, schedule: Q01DX005 (ip), vehicle: Klucel (hydroxypropylcellulose) (HPC)) 105 % of control and 96 % of control and 98 % of control; (dose: 240.0 mg/kg/injection, schedule: Q01DX005 (ip), vehicle: Klucel (hydroxypropylcellulose) (HPC)) 107 % of control.

Consider `COc1c(Br)cnc2ccccc12`, for which the T/C (dose: 12.5 mg/kg/injection, schedule: Q01DX009 (ip), vehicle: distilled water + Tween-80) was 96 % of control; the T/C (dose: 25.0 mg/kg/injection, schedule: Q01DX009 (ip), vehicle: distilled water + Tween-80) is 96 % of control; the T/C (dose: 50.0 mg/kg/injection, schedule: Q01DX009 (ip), vehicle: distilled water + Tween-80) was 102 % of control; the T/C (dose: 100.0 mg/kg/injection, schedule: Q01DX009 (ip), vehicle: distilled water + Tween-80) is 102 % of control; the T/C (dose: 200.0 mg/kg/injection, schedule: Q01DX009 (ip), vehicle: distilled water + Tween-80) was 93 % of control.

As for `[Cl][Ge]([Cl])([Cl])[c]1ccccc1`, the T/C reads like this: under setting [6], 100 % of control; under setting [7], 100 % of control.

As for `Cc1cc(O)c(CCC(C)CCCC(C)C)c(O)c1` (stereo not drawn), the T/C by setting is: under setting [14], 100 % of control; under setting [15], 100 % of control; under setting [16], 110 % of control.

For the compound `O=C1c2ccccc2C(=O)C1C(=Nc1ccccc1Br)c1ccccc1`, the T/C by setting is: under setting [8], 99 % of control; under setting [9], 103 % of control; under setting [10], 103 % of control.

The values are drawn from PubChem BioAssay AID330 (DTP/NCI, 2004).
